# Assays:
# U251N23 cells [1] = test: MTT cell viability assay; format: cell-based; conditions: Homo sapiens, 144 h, day 6 after treatment, U251N23 (control-transfected)
# Procedure: In vitro viability was determined by the 3-(4,5-dimethylthiazol-2yl)-2,5-diphenyltetrazolium bromide (MTT) colorimetric assay as described in (Huang et al., Cancer Res. 55:5054-5062 (1995)). Cells (1×10^3) were plated in triplicate in 96 well microplates overnight and treated with 5 different concentrations of VP16, Tax and DOX, respectively. […] Absorbance values at 570 nm were plotted as a measure of the relative number of cells. […] Both methods gave the identical results.
# (§1) Values at OD 570 reflect the relative number of viable cells.
# U251N23 cells [2] = test: Clonogenicity (cell survival) assay; format: cell-based, human
# Procedure: (§2) The surviving cell fraction was determined by clonogenicity assay as previously described (Huang et al., J. Cell Biol. 133:211-220 (1996)). Cells were seeded at a density of 500 cells per 60 mm plate and incubated overnight and then treated with drugs; culture was then continued for 3 weeks. Clones were fixed in 4% formaldehyde-PBS and stained with Giemsa solution. Colonies containing more than 50 cells were counted and the fraction of surviving cells was calculated. The results represented the average of three separate experiments.
# as §1
# U251cx43-216 cells [3] = test: Clonogenicity (cell survival) assay; format: cell-based, human
# Procedure: as §2, §1
# U251cx43-216 cells [4] = test: MTT cell viability assay; conditions: Homo sapiens, 144 h
# U251N23 cells [5] = test: Gap junction communication, Lucifer yellow dye transfer; format: cell-based, human; conditions: U251N23, GA 25 μM
# Procedure: (§3) Gap junctional communication (GJC) was assayed by transfer of the fluorescent Lucifer yellow (LY) after single-cell micro-injection, as described previously (Huang et al., Cancer Res. 58:5089-5096 (1998)). Cells were observed under a fluorescence-inverted microscope after micro-injection at the given time points, and the number of neighboring cells labeled with fluorescent dye was recorded.
# (§4) It was next determined whether cx43-mediated apoptosis was related to gap junctional communication (GJC). […] Since Lucifer yellow dye transfer may not accurately reflect the ability of intracellular substances to pass through gap junctions, apoptosis was examined in response to VP16 in the presence of α-Glycyrrhetinic acid (GA), which inhibits GJC (Davidson et al., Biochem. Biophys. Res. Commun. 134:29-36 (1986); Davidson and Baumgarten, J. Pharmacol. Exp. Ther. 266:1104-1107 (1988)). […] Consistent with previous studies, both cx43- and control-transfected cells poorly communicated each other as examined by Lucifer yellow dye transfer experiment. The effect of GA was not obvious due to poor GJC in untreated U251 cells. […] Thus, the difference in apoptosis is probably due to the presence of cx43 itself rather than GJC. Furthermore, cx43-transfected cells expressed only non-phosphorylated cx43 in both mock- and VP 16-treated cells. In contrast, when the same experimental procedure was used to detect cx43 in primary astrocytes and T51B cells, several phosphorylated isoforms were clearly observed (Huang et al., Cancer Res. 58:5089-5096 (1998)). It is generally believed that phosphorylated forms of cx43 are involved in GJC (Hossain et al., J. Cell Physiol. 174:66-77 (1998)). Therefore it is likely that cx43-mediated apoptosis in response to VP16 is not related to its gap junctional communication effect.
# U251cx43-216 cells [6] = test: as above; format: cell-based, human; conditions: U251cx43-216, GA 25 μM
# Procedure: as §3, §4
# [7] = test system: T51B rat liver epithelial cells; test: as above; format: cell-based
# Procedure: as §3
# as §4, with “In contrast, when the same experimental procedure was used to detect cx43 in primary astrocytes and T51B cells, several phosphorylated isoforms were clearly observed (Huang et al., Cancer Res. 58:5089-5096 (1998)). It is generally believed that phosphorylated forms of cx43 are involved in GJC (Hossain et al., J. Cell Physiol. 174:66-77 (1998)). Therefore it is likely that cx43-mediated apoptosis in response to VP16 is not related to its gap junctional communication effect.” left out
# [8] = test system: cx43- or control-transfected cells; test: Apoptosis in response to VP16 in the presence of GA; format: cell-based, human; conditions: cx43- and control-transfected cells
# From the text: as §4, with “Therefore it is likely that cx43-mediated apoptosis in response to VP16 is not related to its gap junctional communication effect.” left out
# [9] = test system: Cx43-transfected cells (U251cx43-216 and U251cx43-217); test: Apoptosis by Hoechst dye staining after Tax; format: cell-based, human
# Procedure: (§5) The assay was performed as we previously described (Huang et al., Cell Death Differ. 5:96-106 (1998)). Briefly, cells were fixed in Carnoy's solution (methanol:glacial […]; 3:1) and stained with 5 μg/ml of bisbenzimide trihydrochloride (Hoechst 33258) for 20 min. The morphology of nuclei was then observed with a Zeiss (Thornwood, N.Y.) photomicroscope II. At least 500 nuclei in each cell line were counted. Experiments were repeated four times.
# (§6) Cx43-transfected cells (U251cx43-216 and U251cx43-217) and control-transfected cells (U251N2 and U251N23) were treated with different concentrations of Tax (0, 10^−9, and 4×10^−9). Four days after treatment, cells were analyzed for apoptosis by Hoechst dye staining.
# [10] = test system: control-transfected cells (U251N2 and U251N23); test: Apoptosis by Hoechst dye staining after Tax; format: cell-based, human; conditions: 4×10^−9 M, four days after treatment
# Procedure: as §5, §6
# U251cx43-216 cells [11] = test: Soft agar colony formation assay; format: cell-based, human
# Procedure: (§7) Soft agar assay were performed as described previously (Huang, et al., Cancer Res. 58:5089-5096 (1998); Huang, et al., Mol. Carcinog. 30:209-217 (2001); Huang, et al., Carcinogenesis 20:485-492 (1999)). Briefly, cx43-transfected cells and control-transfected cells were assayed by seeding 1,000 cells in 0.26% agar medium into 6 well plates previously lined with 0.65% agar medium. The plates (in duplicate and repeated twice) were cultured for 3-4 weeks in the presence of different treatments and then stained with p-iodotetrazolium violet for overnight before photography and counting. Colony size equal to or greater than 15,625 μm^2 was scored as positive.
# (§8) To examine the effect of down-regulation of MCP-1 on the transformed growth, cx43-transfected and control-transfected clones were assayed for their anchorage-independent growth in soft agar in the presence of MCP-1.
# U251cx43-217 cells = test: Soft agar colony formation assay; format: cell-based, human
# Procedure: as §7, §8
# cx43-transfected cells = test: Cell proliferation in presence of cytokine or conditioned medium; format: cell-based, human
# Procedure: The experiment was performed as described in Huang et al., (Cancer Res. 55:5054-5062 (1995); and Oncogene 10:467-475 (1995)). Briefly, cells were seeded in 96-well plates. 24 hr later, cells were incubated in the presence of cytokine or conditioned medium for 48 hours. 0.5 μCi of ^3H-thymidine was added to each well and incubation was continuous for 24 hr. The incorporated ^3H-thymidine was then determined by a scintillation counter.
# The down-regulation of MCP-1 in cx43-transfected cells raised the question of whether reversion of the transformed phenotype in cx43-transfected cell was mediated by the reduction of MCP-1 expression. To test this possibility, anti-MCP-1 neutralization antibody was added into the tissue culture medium to block the MCP-1 activity and to examine the cell proliferation by CyQUANT cell proliferation assay.
# [12] = test system: Cx43-transfected clones and control-transfected clones; test: Apoptosis in the presence of MCP-1 or anti-MCP-1 antibody; format: cell-based, human; conditions: normal culture conditions, low serum conditions or in response to chemotherapeutic drugs
# Procedure: Cx43-transfected clones and control-transfected clones were assayed for apoptosis in the presence of MCP-1 or anti-MCP-1 antibody. […] Therefore, enhanced apoptosis under low serum conditions and decreased cell growth in cx43-transfected cells involves at least two separate pathways.
# [13] = U251cx43-216, 1 × 10^−9, 3 weeks
# [14] = U251cx43-216, 4 × 10^−9, 3 weeks
# [15] = U251cx43-216, 4 × 10^−10, 3 weeks
molecule,measurement,setting,value
"COc1cccc2c1C(=O)c1c(O)c3c(c(O)c1C2=O)C[C@@](O)(C(=O)CO)C[C@@H]3O[C@H]1C[C@H](N)[C@H](O)[C@H](C)O1 [DOX, Doxorubicin]",IC50,U251N23 cells [1],1.77 nM
same,Colony formation (colonies counted),"U251N23 cells [2]; U251N23, 1 × 10^−9, 3 weeks",15 +/− 5
same,Colony formation (colonies counted),"U251N23 cells [2]; U251N23, 4 × 10^−9, 3 weeks",6 +/− 0
same,Colony formation (colonies counted),"U251N23 cells [2]; U251N23, 4 × 10^−10, 3 weeks",147 +/− 14
same,Colony formation (colonies counted),U251cx43-216 cells [3]; [13],6 +/− 1
same,Colony formation (colonies counted),U251cx43-216 cells [3]; [14],2 +/− 3
same,Colony formation (colonies counted),U251cx43-216 cells [3]; [15],70 +/− 6
same,IC50,U251cx43-216 cells [4],0.82 nM
"CC1(C)[C@@H](O)CC[C@]2(C)[C@H]3C(=O)C=C4[C@@H]5C[C@@](C)(C(=O)O)CC[C@]5(C)CC[C@@]4(C)[C@]3(C)CC[C@@H]12 [GA, α-Glycyrrhetinic acid]",No. of Fluorescent Neighboring cells after GA treatment,U251N23 cells [5]; 5 min,0.7 +/− 1.1
same,No. of Fluorescent Neighboring cells after GA treatment,U251N23 cells [5]; 24 h,2.2 +/− 3.7
same,No. of Fluorescent Neighboring cells after GA treatment,U251N23 cells [5]; 48 h,0.9 +/− 1.9
same,No. of Fluorescent Neighboring cells after GA treatment,U251N23 cells [5]; 72 h,2.4 +/− 4.1
same,No. of Fluorescent Neighboring cells after GA treatment,U251cx43-216 cells [6]; 5 min,0.6 +/− 1.3
same,No. of Fluorescent Neighboring cells after GA treatment,U251cx43-216 cells [6]; 24 h,0 +/− 0
same,No. of Fluorescent Neighboring cells after GA treatment,U251cx43-216 cells [6]; 48 h,0.6 +/− 1.1
same,No. of Fluorescent Neighboring cells after GA treatment,U251cx43-216 cells [6]; 72 h,0.1 +/− 0.3
same,effect on GJC,[7]; T51B cells,completely blocked GJC
same,No. of Fluorescent Neighboring cells after GA treatment,"[7]; T51B, GA 25 μM, 5 min",0 +/− 0
same,alteration of apoptosis in response to VP16 in the presence of α-Glycyrrhetinic acid,[8],No significant alteration of apoptosis
"CC(=O)O[C@H]1C(=O)[C@@]2(C)[C@H]([C@H](OC(=O)c3ccccc3)[C@]3(O)C[C@H](OC(=O)[C@H](O)[C@@H](NC(=O)c4ccccc4)c4ccccc4)C(C)=C1C3(C)C)[C@]1(OC(C)=O)CO[C@@H]1C[C@@H]2O [Tax, Paclitaxel]",IC50,U251N23 cells [1],1.5 nM
same,Colony formation (colonies counted),"U251N23 cells [2]; U251N23, 1 × 10^−9, 3 weeks",37 +/− 6
same,Colony formation (colonies counted),"U251N23 cells [2]; U251N23, 4 × 10^−9, 3 weeks",16 +/− 2
same,Colony formation (colonies counted),"U251N23 cells [2]; U251N23, 4 × 10^−10, 3 weeks",108 +/− 9
same,Colony formation (colonies counted),U251cx43-216 cells [3]; [13],9 +/− 5
same,Colony formation (colonies counted),U251cx43-216 cells [3]; [14],4 +/− 3
same,Colony formation (colonies counted),U251cx43-216 cells [3]; [15],54 +/− 5
same,"increase in apoptosis, cx43-expressing vs control-transfected cells","[9]; Tax treatment, four days",3- to 4 fold
same,cells displaying typical features of apoptosis,"[9]; cx43-transfected cells, 4×10^−9 M, four days after treatment",about 65%
same,apoptotic cells,[10],about 17%
same,IC50,U251cx43-216 cells [4],0.71 nM
MCP-1: Monocyte chemotactic protein-1 (MCP-1) is a member of the CC chemokine family,Colony formation in soft agar,"U251cx43-216 cells [11]; U251cx43-216, MCP-1 0.1 ng/ml",18.0 ± 2.83
same,Colony formation in soft agar,"U251cx43-216 cells [11]; U251cx43-216, MCP-1 1 ng/ml",37.5 ± 3.53
same,Colony formation in soft agar,"U251cx43-216 cells [11]; U251cx43-216, MCP-1 10 ng/ml",28.5 ± 4.95
same,Colony formation in soft agar,"U251cx43-216 cells [11]; U251cx43-216, MCP-1 100 ng/ml",36.0 ± 5.65
same,Colony formation in soft agar,"U251cx43-217 cells; U251cx43-217, MCP-1 0.1 ng/ml",18.0 ± 2.83
same,Colony formation in soft agar,"U251cx43-217 cells; U251cx43-217, MCP-1 1 ng/ml",24.5 ± 2.12
same,Colony formation in soft agar,"U251cx43-217 cells; U251cx43-217, MCP-1 10 ng/ml",22.5 ± 3.53
same,Colony formation in soft agar,"U251cx43-217 cells; U251cx43-217, MCP-1 100 ng/ml",20.5 ± 2.12
same,effect on cell proliferation rate,cx43-transfected cells,specifically stimulated
same,effect on apoptosis,[12],did not have any effect
